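1) Cells in 96-well plates. 2) Compound, 48 h, 5 concentrations. 3) Linear interpolation between surrounding doses. 4) Unreached endpoint = highest concentration. Here, GI50 denotes the concentration required for 50% inhibition of growth. Definition used: TGI = concentration required for complete inhibition of growth.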
Legend:
Assay in all cases: NCI-60 cell line screen, 48 h
786-0 renal = test system: 786-0 renal
A498 renal = test system: A498 renal
A549 NSCLC = test system: A549 NSCLC
ACHN renal = test system: ACHN renal
BT-549 breast = test system: BT-549 breast
CAKI-1 renal = test system: CAKI-1 renal
CCRF-CEM leukemia = test system: CCRF-CEM leukemia
COLO 205 colon = test system: COLO 205 colon
DU-145 prostate = test system: DU-145 prostate
EKVX NSCLC = test system: EKVX NSCLC
HCC-2998 colon = test system: HCC-2998 colon
HCT-116 colon = test system: HCT-116 colon
HCT-15 colon = test system: HCT-15 colon
HL-60(TB) leukemia = test system: HL-60(TB) leukemia
HOP-62 NSCLC = test system: HOP-62 NSCLC
HOP-92 NSCLC = test system: HOP-92 NSCLC
HS 578T breast = test system: HS 578T breast
HT29 colon = test system: HT29 colon
IGROV1 ovarian = test system: IGROV1 ovarian
K-562 leukemia = test system: K-562 leukemia
KM12 colon = test system: KM12 colon
LOX IMVI melanoma = test system: LOX IMVI melanoma
M14 melanoma = test system: M14 melanoma
MALME-3M melanoma = test system: MALME-3M melanoma
MCF7 breast = test system: MCF7 breast
MDA-MB-231 breast = test system: MDA-MB-231 breast
MDA-MB-435 = test system: MDA-MB-435
MDA-MB-468 breast = test system: MDA-MB-468 breast
MOLT-4 leukemia = test system: MOLT-4 leukemia
NCI-H226 lung = test system: NCI-H226 lung
NCI-H23 lung = test system: NCI-H23 lung
NCI-H460 lung = test system: NCI-H460 lung
NCI-H522 lung = test system: NCI-H522 lung
NCI/ADR-RES ovarian = test system: NCI/ADR-RES ovarian
OVCAR-3 ovarian = test system: OVCAR-3 ovarian
OVCAR-4 ovarian = test system: OVCAR-4 ovarian
OVCAR-5 ovarian = test system: OVCAR-5 ovarian
OVCAR-8 ovarian = test system: OVCAR-8 ovarian
PC-3 prostate = test system: PC-3 prostate
RPMI-8226 leukemia = test system: RPMI-8226 leukemia
RXF 393 renal = test system: RXF 393 renal
SF-268 CNS = test system: SF-268 CNS
SF-295 CNS = test system: SF-295 CNS
SF-539 CNS = test system: SF-539 CNS
SK-MEL-2 melanoma = test system: SK-MEL-2 melanoma
SK-MEL-28 melanoma = test system: SK-MEL-28 melanoma
SK-MEL-5 melanoma = test system: SK-MEL-5 melanoma
SK-OV-3 ovarian = test system: SK-OV-3 ovarian
SN12C renal = test system: SN12C renal
SNB-19 CNS = test system: SNB-19 CNS
SNB-75 CNS = test system: SNB-75 CNS
SR leukemia = test system: SR leukemia
SW-620 colon = test system: SW-620 colon
T-47D breast = test system: T-47D breast
TK-10 renal = test system: TK-10 renal
U251 CNS = test system: U251 CNS
UACC-257 melanoma = test system: UACC-257 melanoma
UACC-62 melanoma = test system: UACC-62 melanoma
UO-31 renal = test system: UO-31 renal

For `O=c1[nH]c2ccc(Cl)cc2cc1CSc1ccc(Nc2nccc(-c3ccc(Cl)cc3)n2)cc1`, the GI50 (786-0 renal) was 17.4 µM, the TGI (786-0 renal) was 34.3 µM and the GI50 (A498 renal) was 20 µM. The TGI (A498 renal) was 43.7 µM, the GI50 (A549 NSCLC) was 16.9 µM and the TGI (A549 NSCLC) was 41.2 µM. The GI50 (ACHN renal) was 22 µM, the TGI (ACHN renal) was 56.1 µM and the GI50 (BT-549 breast) was 15.5 µM. For the same compound, the TGI (BT-549 breast) was 31.8 µM, the GI50 (CAKI-1 renal) was 15.6 µM and the TGI (CAKI-1 renal) was 38.4 µM. It also gave a GI50 (CCRF-CEM leukemia) of 13.4 µM, a TGI (CCRF-CEM leukemia) greater than 100 µM and a GI50 (COLO 205 colon) of 40.5 µM. The TGI (COLO 205 colon) was greater than 100 µM, the GI50 (DU-145 prostate) was 15.1 µM and the TGI (DU-145 prostate) was 61.7 µM. For the same compound, the GI50 (EKVX NSCLC) was 28.1 µM, the TGI (EKVX NSCLC) was greater than 100 µM and the GI50 (HCC-2998 colon) was 25.3 µM. For the same compound, the TGI (HCC-2998 colon) was greater than 100 µM, the GI50 (HCT-116 colon) was 10.6 µM and the TGI (HCT-116 colon) was 26.7 µM. For the same compound, the GI50 (HCT-15 colon) was 6.64 µM, the TGI (HCT-15 colon) was 24.5 µM and the GI50 (HL-60(TB) leukemia) was 42.9 µM. The TGI (HL-60(TB) leukemia) was greater than 100 µM, the GI50 (HOP-62 NSCLC) was 16.5 µM and the TGI (HOP-62 NSCLC) was 31.7 µM. It also gave a GI50 (HOP-92 NSCLC) of 15.9 µM, a TGI (HOP-92 NSCLC) of 38.3 µM and a GI50 (HS 578T breast) of 17.3 µM. It also gave a TGI (HS 578T breast) of 52 µM, a GI50 (HT29 colon) of 13.8 µM and a TGI (HT29 colon) greater than 100 µM. The GI50 (IGROV1 ovarian) was 22.7 µM, the TGI (IGROV1 ovarian) was 52.5 µM and the GI50 (K-562 leukemia) was 15.8 µM. The TGI (K-562 leukemia) was greater than 100 µM, the GI50 (KM12 colon) was 30.5 µM and the TGI (KM12 colon) was greater than 100 µM. It also gave a GI50 (LOX IMVI melanoma) of 20.6 µM, a TGI (LOX IMVI melanoma) of 60.9 µM and a GI50 (M14 melanoma) of 19.1 µM. For the same compound, the TGI (M14 melanoma) was 50.5 µM, the GI50 (MALME-3M melanoma) was 19.1 µM and the TGI (MALME-3M melanoma) was 50.1 µM. It also gave a GI50 (MCF7 breast) of 5.65 µM, a TGI (MCF7 breast) of 28.5 µM and a GI50 (MDA-MB-231 breast) of 12.4 µM. For the same compound, the TGI (MDA-MB-231 breast) was 28 µM, the GI50 (MDA-MB-435) was 15.3 µM and the TGI (MDA-MB-435) was 40.9 µM. It also gave a GI50 (MDA-MB-468 breast) of 10.6 µM, a TGI (MDA-MB-468 breast) of 25.3 µM and a GI50 (MOLT-4 leukemia) of 13.5 µM. It also gave a TGI (MOLT-4 leukemia) greater than 100 µM, a GI50 (NCI-H226 lung) of 16.5 µM and a TGI (NCI-H226 lung) of 45.1 µM. The GI50 (NCI-H23 lung) was 15.3 µM, the TGI (NCI-H23 lung) was 30 µM and the GI50 (NCI-H460 lung) was 6.2 µM. For the same compound, the TGI (NCI-H460 lung) was 25.5 µM, the GI50 (NCI-H522 lung) was 20.1 µM and the TGI (NCI-H522 lung) was 51.7 µM. The GI50 (NCI/ADR-RES ovarian) was 14.8 µM, the TGI (NCI/ADR-RES ovarian) was 42 µM and the GI50 (OVCAR-3 ovarian) was 19.1 µM. It also gave a TGI (OVCAR-3 ovarian) of 37.1 µM, a GI50 (OVCAR-4 ovarian) of 16.9 µM and a TGI (OVCAR-4 ovarian) of 51 µM. For the same compound, the GI50 (OVCAR-5 ovarian) was 57.8 µM, the TGI (OVCAR-5 ovarian) was greater than 100 µM and the GI50 (OVCAR-8 ovarian) was 23.4 µM. For the same compound, the TGI (OVCAR-8 ovarian) was 72.6 µM, the GI50 (PC-3 prostate) was 9.22 µM and the TGI (PC-3 prostate) was 27.8 µM. The GI50 (RPMI-8226 leukemia) was 86.6 µM, the TGI (RPMI-8226 leukemia) was greater than 100 µM and the GI50 (RXF 393 renal) was 12 µM. For the same compound, the TGI (RXF 393 renal) was 26.4 µM, the GI50 (SF-268 CNS) was 15.3 µM and the TGI (SF-268 CNS) was 40.1 µM. The GI50 (SF-295 CNS) was 17.6 µM, the TGI (SF-295 CNS) was 36.9 µM and the GI50 (SF-539 CNS) was 15.1 µM. It also gave a TGI (SF-539 CNS) of 31.1 µM, a GI50 (SK-MEL-2 melanoma) of 20 µM and a TGI (SK-MEL-2 melanoma) of 43 µM. For the same compound, the GI50 (SK-MEL-28 melanoma) was 22.6 µM, the TGI (SK-MEL-28 melanoma) was 72.3 µM and the GI50 (SK-MEL-5 melanoma) was 25.5 µM. The TGI (SK-MEL-5 melanoma) was 99.2 µM, the GI50 (SK-OV-3 ovarian) was 18.7 µM and the TGI (SK-OV-3 ovarian) was 39 µM. It also gave a GI50 (SN12C renal) greater than 100 µM, a TGI (SN12C renal) greater than 100 µM and a GI50 (SNB-19 CNS) of 15.8 µM. It also gave a TGI (SNB-19 CNS) of 31.5 µM, a GI50 (SNB-75 CNS) of 11.4 µM and a TGI (SNB-75 CNS) of 29.7 µM. For the same compound, the GI50 (SR leukemia) was 69.5 µM, the TGI (SR leukemia) was greater than 100 µM and the GI50 (SW-620 colon) was 4.42 µM. For the same compound, the TGI (SW-620 colon) was 20 µM, the GI50 (T-47D breast) was 29.6 µM and the TGI (T-47D breast) was greater than 100 µM. It also gave a GI50 (TK-10 renal) of 18.6 µM, a TGI (TK-10 renal) of 36.2 µM and a GI50 (U251 CNS) of 16.5 µM. For the same compound, the TGI (U251 CNS) was 36.1 µM, the GI50 (UACC-257 melanoma) was greater than 100 µM and the TGI (UACC-257 melanoma) was greater than 100 µM. The GI50 (UACC-62 melanoma) was 19.6 µM, the TGI (UACC-62 melanoma) was 45.4 µM and the GI50 (UO-31 renal) was 29 µM. The TGI (UO-31 renal) was greater than 100 µM.
